The results in this text go back to patent publication US20070104811A1, “Pharmaceutical composition useful for the treatment of prostate cancer” (priority 2005, published 2007).

Series [1] relates to neonatal skeletal muscle cell. The experiment in a line: Cell viability of control cells: neonatal skeletal muscle cell. In kind it is cell-based, rat. The settings on record: 100 μg/ml M. koenigii + 100 μg/ml T. terrestris, total 200 μg/ml; 96 h. On the procedure: The skeletal muscles from 2-day-old neonatal rat were isolated by method described previously by William E Russell (1997) with modifications. Briefly, Soleus muscle were dissected, minced and digested with 0.2% Type II Collagenase and 0.05% trypsin in Phosphate buffered Saline (PBS) pH 7.4, 0.15M NaCl. The dispersed skeletal muscle cells were centrifuged (1000 g, 10 minutes) washed and resuspended in Phosphate buffered Saline (PBS) with 1% antibiotic-antimycotic. Cells were preincubated for 30 minutes at 37° C., 95% air/5%CO2. The floating muscle cells were plated on collagen coated T-25 flaks in Dulbecco's modified Eagle Medium enriched with 10% Fetal. Bovine Serum and 1% antibiotic-antimycotic
Viability of PC-3 after treatment as at the indicated times was determined by MTT assay -Cell titre 96 AQoueus One solution Cell Proliferation Assay (Promega, Corp. Madison, Wis.) as per manufacturer's protocol. Briefly, 10,000 cells were plated in triplicate in 96 well plates and incubated for 12 hours in complete media. Compound MK-3 was added as indicated on replacing them to fresh complete media and incubated upto 96 hours for varied time periods. 20 μl per well of cell titre 96 AQoueus One solution reagent. […] Absorbance was recorded at 490 nm with 96 well plate readers. Reference wavelength of 630 nm was used to reduce background contributed by non-specific absorbance due to cell debris.

A short description of series [2]: Acute toxicity as per WHO guidelines, haematological parameters. The settings on record: mahanine 2 gm/kg body weight orally once, 15 days after treatment; vehicle control 92. In kind it is in vivo, Mice, Balb/C. On the procedure: Experiments for acute toxicity are performed as per the guidelines of WHO. Experimental subject: Mice, Balb/C Male, female. 25 gms body weight (approx) 16 mice were divided into 2 groups 8 animals were received the dosage of @2 gm/kg body weight of combined extract. Equal volume of the vehicle (DMSO) were given to 8 animals wherein dose administered orally once and then animals sacrificed and haematological parameters checked 15 days after treatment.
Experiments for acute toxicity are performed as per the guidelines of WHO. Experimental subject: Mice, Balb/C Male, female. 25 gms body weight (approx) 16 mice were divided into 2 groups 8 animals were received the compound @2 gm/kg body weight. Equal volume of the vehicle (DMSO) were given to 8 animals wherein dose administered orally once and then animals sacrificed and haematological and biochemical parameters checked 15 days after treatment.

The test system of a further series is cardiomyocyte. The experiment in a line: Cell viability of control cells: neonatal cardiomyocyte. In kind it is cell-based, rat. The settings on record: 100 μg/ml M. koenigii + 100 μg/ml T. terrestris, total 200 μg/ml; 96 h. On the procedure: The cardiomyocytes from 2-day-old neonatal rat were isolated by the method previously described by Yoshihiro Kimura (1994) with modifications. Briefly, heart was excised and minced in pre warmed (37° C.) Ads buffer (1.2M NaCl, 198 mM HEPES, 54 mM KCl, 8.3 mM MgSO4, 55.4 mM glucose, 95 mM NaH2PO4), digested in typeII Collagenase 0.05% and Pancreatin in 3-succesive digestions of 15 minutes each. Supernatant was pooled and cells palleted at 2000 g, 10 minutes. Cells were resuspended and plated in collagen coated T-25 flaks in Medium-199 enriched with 10% Fetal Bovine Serum and 1% antibiotic-antimycotic.
(§1) Viability of PC-3 after treatment as at the indicated times was determined by MTT assay -Cell titre 96 AQoueus One solution Cell Proliferation Assay (Promega, Corp. Madison, Wis.) as per manufacturer's protocol. Briefly, 10,000 cells were plated in triplicate in 96 well plates and incubated for 12 hours in complete media. Compound MK-3 was added as indicated on replacing them to fresh complete media and incubated upto 96 hours for varied time periods. 20 μl per well of cell titre 96 AQoueus One solution reagent. Incubate the plate for 1-4 hours at 37° C. and humidified 5% CO2 atmosphere. Absorbance was recorded at 490 nm with 96 well plate readers. Reference wavelength of 630 nm was used to reduce background contributed by non-specific absorbance due to cell debris.

Another series deals with hepatocyte. The experiment in a line: Cell viability of control cells: neonatal hepatocyte. Format: cell-based, rat. Particulars: 100 μg/ml M. koenigii + 100 μg/ml T. terrestris, total 200 μg/ml; 96 h. On the procedure: The hepatocytes from 2-day-old neonatal rat were isolated by method described previously by William E Russell (1997) with modifications. Briefly, the livers were perfused through the portal vein with a calcium-free solution consisting of 150 mM NaCl, 2.8 mM KCl, 5.5 mM glucose, and 25 mM HEPES (pH 7.6) for 10 min, followed by mincing and digestion in DMEM containing 0.05% collagenase type IV for 30 minutes. The cells were centrifuged (2000 g, 10 minutes) and dispersed in DMEM enriched with 10% fetal Bovine Serum, 1% antibiotic-antimycotic.
as §1

As to mahanine, the “toxic effects / cell death” value (in series [1]; with cardiomyocyte; in the series with hepatocyte) was “no sign of cell death” each time. Further, the WBC in series [2] stood at 89.
